Data from article PMC6956804, “Potent antibacterial activity of MSI-1 derived from the magainin 2 peptide against drug-resistant bacteria” (Theranostics, 2020).
Converted amounts (≈) assume the structure as drawn. Peptide text beside a SMILES is read from it.

Experiments:
E. coli ATCC25922 = test: microbe, parasite or virus in culture; format: cell-based; conditions: micro-broth serial dilution, 600 nm
Experimental: (§1) Bacterial strains were purchased from the American Type Culture Collection (ATCC). All clinical strains were isolated from human clinical specimens by the Medical Laboratory Center of Zhongda Hospital (Nanjing, Jiangsu, China). Ndm-1, tem-1, ctx-m-1, shv-1 -carrying bacteria were constructed as previously described. The recombinant bacteria carrying drug-resistant genes were prepared in LB nutrient and induced by IPTG (1 mM) for 4 h before text. Other bacterial strains were respectively prepared in MHB and Columbia Blood Agar Base.
(§2) A standard micro-broth serial dilution assay was used to measure MIC of peptides. MIC was obtained by a microplate reader at 600 nm. MBC was determined as previously described.

[1] = system: P. aeruginosa T6 (ESBLs (+)); test: microbe, parasite or virus in culture; format: cell-based; conditions: P. aeruginosa T6 (ESBLs (+)), clinical strain
Experimental: as §1, §2

E. faecium = test: microbe, parasite or virus in culture; format: cell-based
Experimental: as §1, §2

E. faecalis = test: microbe, parasite or virus in culture; format: cell-based
Experimental: as §1, §2

[2] = system: P. aeruginosa T8 (ESBLs (+)); test: microbe, parasite or virus in culture; format: cell-based; conditions: P. aeruginosa T8 (ESBLs (+)), clinical strain
Experimental: as §1, §2

[3] = system: P. aeruginosa T1 (ESBLs (+)); test: microbe, parasite or virus in culture; format: cell-based; conditions: P. aeruginosa T1 (ESBLs (+)), clinical strain
Experimental: as §1, §2

Shigella flexneri = test: microbe, parasite or virus in culture; format: cell-based
Experimental: as §1, §2

E. coli A2 (ESBLs (+)) = test: microbe, parasite or virus in culture; format: cell-based; conditions: E. coli A2 (ESBLs (+)), clinical strain
Experimental: as §1, §2

S. pneumoniae ATCC 49619 = test: microbe, parasite or virus in culture; format: cell-based
Experimental: as §1, §2

E. coli A9 (ESBLs (+)) = test: microbe, parasite or virus in culture; format: cell-based; conditions: E. coli A9 (ESBLs (+)), clinical strain
Experimental: as §1, §2

E. cloacae S3 (AmpC (+)) = test: microbe, parasite or virus in culture; format: cell-based; conditions: E. cloacae S3 (AmpC (+)), clinical strain
Experimental: as §1, §2

P. aeruginosa ATCC27853 = test: microbe, parasite or virus in culture; format: cell-based
Experimental: as §1, §2

E. coli A5 (ESBLs (+)) = test: microbe, parasite or virus in culture; format: cell-based; conditions: E. coli A5 (ESBLs (+)), clinical strain
Experimental: as §1, §2

E. cloacae S1 (AmpC (+)) = test: microbe, parasite or virus in culture; format: cell-based; conditions: E. cloacae S1 (AmpC (+)), clinical strain
Experimental: as §1, §2

S. aureus ATCC25923 = test: microbe, parasite or virus in culture; format: cell-based
Experimental: as §1, §2

S. epidermidis ATCC35984 = test: microbe, parasite or virus in culture; format: cell-based
Experimental: as §1, §2

PRSP P112 = test: microbe, parasite or virus in culture; format: cell-based, Streptococcus pneumoniae; conditions: PRSP P112, clinical strain
Experimental: as §1, §2

PISP F22 = test: microbe, parasite or virus in culture; format: cell-based, Streptococcus pneumoniae; conditions: PISP F22, clinical strain
Experimental: as §1, §2

PRSP P105 = test: microbe, parasite or virus in culture; format: cell-based, Streptococcus pneumoniae; conditions: PRSP P105, clinical strain
Experimental: as §1, §2

PISP F34 = test: microbe, parasite or virus in culture; format: cell-based, Streptococcus pneumoniae; conditions: PISP F34, clinical strain
Experimental: as §1, §2

K. peneumoniae ATCC4352 = test: organism not typed; format: cell-based
Experimental: as §1, §2

[4] = system: K. peneumoniae B9 (ESBLs (+)); test: organism not typed; format: cell-based; conditions: K. peneumoniae B9 (ESBLs (+)), clinical strain
Experimental: as §1, §2

[5] = system: K. peneumoniae B6 (ESBLs (+)); test: organism not typed; format: cell-based; conditions: K. peneumoniae B6 (ESBLs (+)), clinical strain
Experimental: as §1, §2

[6] = system: K. peneumoniae B4 (ESBLs (+)); test: organism not typed; format: cell-based; conditions: K. peneumoniae B4 (ESBLs (+)), clinical strain
Experimental: as §1, §2

MSSE E8 = test: microbe, parasite or virus in culture; format: cell-based, Staphylococcus epidermidis; conditions: MSSE E8, clinical strain
Experimental: as §1, §2

MRSE N109 = test: microbe, parasite or virus in culture; format: cell-based, Staphylococcus epidermidis; conditions: MRSE N109, clinical strain
Experimental: as §1, §2

MRSE N104 = test: microbe, parasite or virus in culture; format: cell-based, Staphylococcus epidermidis; conditions: MRSE N104, clinical strain
Experimental: as §1, §2

MSSE E3 = test: microbe, parasite or virus in culture; format: cell-based, Staphylococcus epidermidis; conditions: MSSE E3, clinical strain
Experimental: as §1, §2

G- and G+ bacteria = test: Antimicrobial activity, summary over the strains; format: cell-based; conditions: both G- and G+ bacteria, summary of Table 1
Experimental: as §2

MRSA M101 = test: microbe, parasite or virus in culture; format: cell-based, Staphylococcus aureus; conditions: MRSA M101, clinical strain
Experimental: as §1, §2

MSSA D1 = test: microbe, parasite or virus in culture; format: cell-based, Staphylococcus aureus; conditions: MSSA D1, clinical strain
Experimental: as §1, §2

MRSA M108 = test: microbe, parasite or virus in culture; format: cell-based, Staphylococcus aureus; conditions: MRSA M108, clinical strain
Experimental: as §1, §2

MSSA D4 = test: microbe, parasite or virus in culture; format: cell-based, Staphylococcus aureus; conditions: MSSA D4, clinical strain
Experimental: as §1, §2

[7] = system: MRSA, Methicillin-resistant clinical isolates; format: cell-based, Staphylococcus aureus
Experimental: as §1, §2

[8] = system: E. coli BL21(DE3)-NDM-1 (ndm-1-carrying recombinant E. coli); format: cell-based
Experimental: as §1, §2

[9] = system: S. epidermidis, Amoxicillin-, Cephalexin- and Levofloxacin- resistant clinical isolates; format: cell-based
Experimental: as §1, §2

[10] = system: K. pneumonia, Penicillin-, Imipenem- and Ceftazidime- resistant clinical isolates; format: cell-based
Experimental: as §1, §2

Helicobacterpylori SS1 = format: cell-based; conditions: Helicobacterpylori SS1
Experimental: as §1, §2

[11] = system: S. aureus, Amoxicillin-, Cephalexin- and Levofloxacin- resistant clinical isolates; format: cell-based
Experimental: as §1, §2

[12] = system: P. aeruginosa, Penicillin-, Imipenem- and Ceftazidime- resistant clinical isolates; format: cell-based
Experimental: as §1, §2

[13] = system: S. pyogenes, Penicillin-, Erythromycin- and Levofloxacin- resistant clinical isolates; format: cell-based
Experimental: as §1, §2

[14] = system: E. coli, Penicillin-, Imipenem- and Ceftazidime- resistant clinical isolates; format: cell-based
Experimental: as §1, §2

[15] = system: S. pneumoniae, Amoxicillin-, Cephalexin- and Levofloxacin- resistant clinical isolates; format: cell-based
Experimental: as §1, §2

murine spleen cells = test: Cytotoxicity, MTT; format: cell-based; conditions: 48 h
Experimental: The cytotoxicity of peptides towards murine spleen cells (obtained from healthy murine with aseptic technique) and other eukaryotic cells (HaCaT, GES-1, human L02, B16F10, A549, H460) were determined by routine MTT method. Cells were incubated with serially diluted peptides (final concentrations: 1.563, 3.125, 6.25, 12.5, 25, 50, 100 and 200 μM) for 48 h.

C57BL/6 mice = test: Acute toxicity in mice; format: in vivo; conditions: intraperitoneal
Experimental: C57BL/6 mice (n=6/group) were intraperitoneally injected with MSI-1 (0, 10, 20, 40, 80 and 100 mg/kg/body weight, respectively). Animals were inspected for adverse effects for 30 min, and survival was monitored for 12 h thereafter. The toxicity severity was classified as Malik U et al previously described.

CC[C@H](C)[C@H](NC(=O)[C@@H](N)Cc1c[nH]c2ccccc12)C(=O)N[C@@H](CCCNC(=N)N)C(=O)N[C@@H](CCCCN)C(=O)N[C@@H](Cc1ccccc1)C(=O)N[C@@H](CC(C)C)C(=O)N[C@@H](CCCCN)C(=O)N[C@@H](CCCNC(=N)N)C(=O)N[C@H](C(=O)N[C@@H](CCCCN)C(=O)N[C@@H](CCCCN)C(=O)N[C@@H](Cc1ccccc1)C(=O)NCC(N)=O)C(C)C [MSI-4] (H-WIRKFLKRVKKFG-NH2)
MIC (E. coli ATCC25922): 16 µg/mL (≈ 9.38 µM)
MIC [1]: 32 µg/mL (≈ 18.8 µM)
MIC (E. faecium): 16 µg/mL (≈ 9.38 µM)
MIC (E. faecalis): 32 µg/mL (≈ 18.8 µM)
MIC [2]: 64 µg/mL (≈ 37.5 µM)
MIC [3]: 16 µg/mL (≈ 9.38 µM)
MIC (Shigella flexneri): 16 µg/mL (≈ 9.38 µM)
MIC (E. coli A2 (ESBLs (+))): 32 µg/mL (≈ 18.8 µM)
MIC (S. pneumoniae ATCC 49619): 16 µg/mL (≈ 9.38 µM)
MIC (E. coli A9 (ESBLs (+))): 32 µg/mL (≈ 18.8 µM)
MIC (E. cloacae S3 (AmpC (+))): 32 µg/mL (≈ 18.8 µM)
MIC (P. aeruginosa ATCC27853): 32 µg/mL (≈ 18.8 µM)
MIC (E. coli A5 (ESBLs (+))): 16 µg/mL (≈ 9.38 µM)
MIC (E. cloacae S1 (AmpC (+))): 16 µg/mL (≈ 9.38 µM)
MIC (S. aureus ATCC25923): 16 µg/mL (≈ 9.38 µM)
MIC (S. epidermidis ATCC35984): 16 µg/mL (≈ 9.38 µM)
MIC (PRSP P112): 32 µg/mL (≈ 18.8 µM)
MIC (PISP F22): 32 µg/mL (≈ 18.8 µM)
MIC (PRSP P105): 64 µg/mL (≈ 37.5 µM)
MIC (PISP F34): 16 µg/mL (≈ 9.38 µM)
MIC (K. peneumoniae ATCC4352): 32 µg/mL (≈ 18.8 µM)
MIC [4]: 16 µg/mL (≈ 9.38 µM)
MIC [5]: 32 µg/mL (≈ 18.8 µM)
MIC [6]: 64 µg/mL (≈ 37.5 µM)
MIC (MSSE E8): 16 µg/mL (≈ 9.38 µM)
MIC (MRSE N109): 32 µg/mL (≈ 18.8 µM)
MIC (MRSE N104): 32 µg/mL (≈ 18.8 µM)
MIC (MSSE E3): 16 µg/mL (≈ 9.38 µM)
MIC (range over strains) (G- and G+ bacteria): 16 to 64 µg/mL
MIC (MRSA M101): 32 µg/mL (≈ 18.8 µM)
MIC (MSSA D1): 32 µg/mL (≈ 18.8 µM)
MIC (MRSA M108): 64 µg/mL (≈ 37.5 µM)
MIC (MSSA D4): 16 µg/mL (≈ 9.38 µM)

CC[C@H](C)[C@H](NC(=O)CN)C(=O)NCC(=O)N[C@@H](C)C(=O)N[C@H](C(=O)N[C@@H](CC(C)C)C(=O)N[C@@H](CCCCN)C(=O)N[C@H](C(=O)N[C@@H](CC(C)C)C(=O)N[C@H](C(=O)N[C@H](C(=O)NCC(=O)N[C@@H](CC(C)C)C(=O)N1CCC[C@H]1C(=O)N[C@@H](C)C(=O)N[C@@H](CC(C)C)C(=O)N[C@H](C(=O)N[C@@H](CO)C(=O)N[C@@H](Cc1c[nH]c2ccccc12)C(=O)N[C@H](C(=O)N[C@@H](CCCCN)C(=O)N[C@@H](CCCNC(=N)N)C(=O)N[C@@H](CCCCN)C(=O)N[C@@H](CCCNC(=N)N)C(=O)N[C@@H](CCC(N)=O)C(=O)N[C@@H](CCC(N)=O)C(N)=O)[C@@H](C)CC)[C@@H](C)CC)[C@@H](C)O)[C@@H](C)O)C(C)C)C(C)C [Melittin]
MBC [7]: 8 µg/mL (≈ 2.81 µM)
MIC [7]: 4 µg/mL (≈ 1.41 µM)
MBC [8]: 8 µg/mL (≈ 2.81 µM)
MIC [8]: 4 µg/mL (≈ 1.41 µM)
MBC [9]: 16 µg/mL (≈ 5.62 µM)
MIC [9]: 4 µg/mL (≈ 1.41 µM)
MBC [10]: 16 µg/mL (≈ 5.62 µM)
MIC [10]: 8 µg/mL (≈ 2.81 µM)
MBC (Helicobacterpylori SS1): 16 µg/mL (≈ 5.62 µM)
MIC (Helicobacterpylori SS1): 8 µg/mL (≈ 2.81 µM)
MBC [11]: 32 µg/mL (≈ 11.2 µM)
MIC [11]: 8 µg/mL (≈ 2.81 µM)
MBC [12]: 8 µg/mL (≈ 2.81 µM)
MIC [12]: 4 µg/mL (≈ 1.41 µM)
MBC [13]: 16 µg/mL (≈ 5.62 µM)
MIC [13]: 8 µg/mL (≈ 2.81 µM)
MBC [14]: 8 µg/mL (≈ 2.81 µM)
MIC [14]: 4 µg/mL (≈ 1.41 µM)
MBC [15]: 16 µg/mL (≈ 5.62 µM)
MIC [15]: 8 µg/mL (≈ 2.81 µM)

CC[C@H](C)[C@H](NC(=O)CN)C(=O)N[C@@H](Cc1c[nH]c2ccccc12)C(=O)N[C@@H](CCCCN)C(=O)N[C@@H](Cc1ccccc1)C(=O)N[C@@H](CC(C)C)C(=O)N[C@@H](CCCCN)C(=O)N[C@@H](CCCCN)C(=O)N[C@@H](C)C(=O)N[C@@H](CCCCN)C(=O)N[C@@H](CCCCN)C(=O)N[C@@H](Cc1ccccc1)C(=O)N[C@@H](Cc1c[nH]c2ccccc12)C(N)=O [MSI-3] (H-GIWKFLKKAKKFW-NH2)
effect on the survival of mouse spleen cells compared with the parent peptide (murine spleen cells): significantly higher
deaths (C57BL/6 mice; 100 mg/kg): some of the mice in the MSI-3-treated group died
adverse effects at approximately 5 min post injection (C57BL/6 mice; dose of peptide above 40 mg/kg, n=6/group): displayed narrowing of the eyes, one mouse was crouching and cuddling, and the other mouse showed convulsions
